# Measured values published in patent US7964594B1, “Amino oxazine derivatives” (Hoffmann-La Roche Inc., priority 2009, dated 2011).
# Target: T1, BACE2 (Rattus norvegicus, UniProt Q6IE75)
# T1 construct: endogenous cellular BACE2 in the Ins1e rat cell line; endogenous in cells; host or cells: INS-TMEM27 (INS1e-derived rat insulinoma cell line with doxycycline-inducible full-length hTMEM27)
# T1 sequence (Q6IE75 63-514): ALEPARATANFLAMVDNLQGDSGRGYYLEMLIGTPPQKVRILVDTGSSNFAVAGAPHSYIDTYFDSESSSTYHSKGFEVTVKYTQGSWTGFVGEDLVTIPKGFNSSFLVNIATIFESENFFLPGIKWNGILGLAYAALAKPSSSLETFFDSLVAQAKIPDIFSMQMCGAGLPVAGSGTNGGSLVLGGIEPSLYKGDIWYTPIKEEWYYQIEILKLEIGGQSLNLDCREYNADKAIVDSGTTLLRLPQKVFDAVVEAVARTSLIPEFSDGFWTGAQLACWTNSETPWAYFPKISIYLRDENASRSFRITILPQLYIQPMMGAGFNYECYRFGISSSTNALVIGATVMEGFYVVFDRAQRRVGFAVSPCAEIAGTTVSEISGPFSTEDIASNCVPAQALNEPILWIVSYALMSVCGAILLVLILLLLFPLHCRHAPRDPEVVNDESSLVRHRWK
# Test: Assay for BACE inhibition by measuring cellular TMEM27 cleavage (INS-TMEM27 cells, ELISA of shed TMEM27)
# Assay type: cell-based
# Conditions: inhibition of human TMEM27 cleavage by endogenous cellular BACE2 in Ins1e rat cell line; ELISA of culture medium
# From the text: Assay for BACE Inhibition by Measuring Cellular TMEM27 Cleavage
# The assay uses the principle of inhibition of human TMEM27 cleavage by endogenous cellular BACE2 in the Ins1e rat cell line and shedding from the cell surface into the culture medium, followed by detection in an ELISA assay. Inhibition of BACE2 prevents the cleavage and shedding in a dose-dependent manner.
# The stable cell line “INS-TMEM27” represents an INS1e-derived cell line with inducible expression (using the TetOn system) of full-length hTMEM27 in a doxycycline-dependent manner. The cells were cultured throughout the experiment in RPMI1640+Glutamax (Invitrogen) Penicillin/Streptomycin, 10% Fetal bovine serum, […], […], 100 micrograms/ml G418 and 100 microgram/ml hygromycin and were grown in adherent culture at 37° C. in a standard CO2 cell culture incubator.
# INS-TMEM27 cells were seeded in 96-well plates. After 2 days in culture, BACE2 inhibitor was added in a range of concentrations as required by the assay and after a further two hours, doxycycline was added to a final concentration of 500 ng/ml. The cells were incubated for a further 46 hours and the supernatant harvested for detection of shed TMEM27.
# An ELISA assay (using a pair of mouse anti-human-TMEM27 antibodies, raised against the extracellular domain of TMEM27) was used for detection of TMEM27 in the culture medium. An IC50 for BACE2 inhibition was calculated using the ELISA readout for each inhibitor concentration with standard curve-fitting software XLfit (IDBS) for the Excel spreadsheet program.
row,SMILES,IC50 [nM]
1,"C[C@]1(c2cc(NC(=O)c3ccc(F)cn3)ccc2F)N=C(N)OCC12CC2 [Example 40, 5-Fluoro-pyridine-2-carboxylic acid [3-((S)-6-amino-8-methyl-5-oxa-7-aza-spiro[2.5]oct-6-en-8-yl)-4-fluoro-phenyl]-amide]",39
2,"C[C@@]1(c2cc(NC(=O)c3ccc(Cl)cn3)ccc2F)CCOC(N)=N1 [Example 2, 5-Chloro-pyridine-2-carboxylic acid [3-((S)-2-amino-4-methyl-5,6-dihydro-4H-[1,3]oxazin-4-yl)-4-fluoro-phenyl]-amide]",10
3,"C[C@]1(c2cc(NC(=O)c3ncc(Cl)cc3Cl)ccc2F)N=C(N)OCC12CC2 [Example 53, (S)—N-(3-(6-Amino-8-methyl-5-oxa-7-azaspiro[2.5]oct-6-en-8-yl)-4-fluorophenyl)-3,5-dichloropicolinamide]",6
4,"C[C@@]1(c2cc(NC(=O)C3CC3(F)F)ccc2F)CCOC(N)=N1 (stereo partly drawn) [Example 46, 2,2-Difluoro-cyclopropanecarboxylic acid [3-((S)-2-amino-4-methyl-5,6-dihydro-4H-[1,3]oxazin-4-yl)-4-fluoro-phenyl]-amide]",70
5,"C[C@]1(c2cc(NC(=O)c3ncccc3C(F)(F)F)ccc2F)N=C(N)OCC12CC2 [Example 51, (S)—N-(3-(6-Amino-8-methyl-5-oxa-7-azaspiro[2.5]oct-6-en-8-yl)-4-fluorophenyl)-3-(trifluoromethyl)picolinamide]",73
6,"C[C@]1(c2cc(NC(=O)c3ccc(C#N)cn3)ccc2F)N=C(N)OCC12CC2 [Example 41, 5-Cyano-pyridine-2-carboxylic acid [3-((S)-6-amino-8-methyl-5-oxa-7-aza-spiro[2.5]oct-6-en-8-yl)-4-fluoro-phenyl]-amide]",52
7,"C[C@]1(c2cc(NC(=O)c3ncc(F)cc3Cl)ccc2F)N=C(N)OCC12CC2 [Example 52, (S)—N-(3-(6-Amino-8-methyl-5-oxa-7-azaspiro[2.5]oct-6-en-8-yl)-4-fluorophenyl)-3-chloro-5-fluoropicolinamide]",16
8,"C[C@@]1(c2cc(NC(=O)c3ncccc3-c3ccccc3)ccc2F)CCOC(N)=N1 [Example 12, 3-Phenyl-pyridine-2-carboxylic acid [3-((S)-2-amino-4-methyl-5,6-dihydro-4H-[1,3]oxazin-4-yl)-4-fluoro-phenyl]-amide]",34
9,C[C@@]1(c2cc(NC(=O)c3cnc(Cl)cn3)ccc2F)CCOC(N)=N1 [Example 14],190
10,"C[C@@]1(c2cc(NC(=O)c3ncccc3C(F)(F)F)ccc2F)CCOC(N)=N1 [Example 16, 3-Trifluoromethyl-pyridine-2-carboxylic acid [3-((S)-2-amino-4-methyl-5,6-dihydro-4H-[1,3]oxazin-4-yl)-4-fluoro-phenyl]-amide]",22
11,"C[C@@]1(c2cc(NC(=O)CC(F)(F)F)ccc2F)CCOC(N)=N1 [Example 59, N-[3-((S)-2-Amino-4-methyl-5,6-dihydro-4H-[1,3]oxazin-4-yl)-4-fluoro-phenyl]-3,3,3-trifluoro-propionamide]",830
12,Cc1conc1C(=O)Nc1ccc(F)c([C@]2(C)CCOC(N)=N2)c1 [Example 63],104
13,"Cc1cc(Cl)cnc1C(=O)Nc1ccc(F)c([C@@]2(C)N=C(N)OCC23CC3)c1 [Example 38, 5-Chloro-3-methyl-pyridine-2-carboxylic acid [3-((S)-6-amino-8-methyl-5-oxa-7-aza-Spiro[2.5]oct-6-en-8-yl)-4-fluoro-phenyl]amide]",5.1
14,"C[C@@]1(c2cc(NC(=O)c3ncccc3F)ccc2F)CCOC(N)=N1 [Example 6, 3-Fluoro-pyridine-2-carboxylic acid [3-((S)-2-amino-4-methyl-5,6-dihydro-4H-[1,3]oxazin-4-yl)-4-fluoro-phenyl]-amide]",19
15,"C[C@@]1(c2cc(NC(=O)c3ccc(C(F)(F)F)cn3)ccc2F)CCOC(N)=N1 [Example 5, 5-Trifluoromethyl-pyridine-2-carboxylic acid [3-((S)-2-amino-4-methyl-5,6-dihydro-4H-[1,3]oxazin-4-yl)-4-fluoro-phenyl]-amide]",89
16,"COc1ccc(C(=O)Nc2ccc(F)c([C@]3(C)CCOC(N)=N3)c2)nc1 [Example 30, 5-Methoxy-pyridine-2-carboxylic acid [3-((S)-2-amino-4-methyl-5,6-dihydro-4H-[1,3]oxazin-4-yl)-4-fluoro-phenyl]-amide]",12
17,"C[C@@]1(c2cc(NC(=O)c3ccccn3)ccc2F)CCOC(N)=N1 [Example 4, Pyridine-2-carboxylic acid [3-((S)-2-amino-4-methyl-5,6-dihydro-4H-[1,3]oxazin-4-yl)-4-fluoro-phenyl]-amide]",230

# Continued by falling IC50, values first:
row,IC50 [nM],SMILES
1,6410,"Cc1c(C(=O)Nc2ccc(F)c([C@@]3(C)N=C(N)OCC34CC4)c2)noc1Cl [Example 57, (S)—N-(3-(6-Amino-8-methyl-5-oxa-7-azaspiro[2.5]oct-6-en-8-yl)-4-fluorophenyl)-5-chloro-4-methylisoxazole-3-carboxamide]"
2,2100,"C[C@]1(c2cc(NC(=O)C3CC3(F)F)ccc2F)N=C(N)OCC12CC2 (mixture of isomers) [Example 55, N-(3-((S)-6-Amino-8-methyl-5-oxa-7-azaspiro[2.5]oct-6-en-8-yl)-4-fluorophenyl)-2,2-difluorocyclopropanecarboxamide]"
3,810,"C[C@]1(c2cc(NC(=O)C3(C(F)(F)F)CC3)ccc2F)N=C(N)OCC12CC2 [Example 54, (S)—N-(3-(6-Amino-8-methyl-5-oxa-7-azaspiro[2.5]oct-6-en-8-yl)-4-fluorophenyl)-1-(trifluoromethyl)cyclopropanecarboxamide]"
4,700,"C[C@@]1(c2cc(NC(=O)C3(C(F)(F)F)CC3)ccc2F)CCOC(N)=N1 [Example 58, 1-Trifluoromethyl-cyclopropanecarboxylic acid [3-((S)-2-amino-4-methyl-5,6-dihydro-4H-[1,3]oxazin-4-yl)-4-fluoro-phenyl]-amide]"
5,620,"C[C@]1(c2cc(NC(=O)c3c(F)cccc3F)ccc2F)N=C(N)OCC12CC2 [Example 47, (S)—N-(3-(6-Amino-8-methyl-5-oxa-7-azaspiro[2.5]oct-6-en-8-yl)-4-fluorophenyl)-2,6-difluorobenzamide]"
6,240,CC[C@@]1(c2cc(NC(=O)c3ccc(Cl)s3)ccc2F)CCOC(N)=N1 [Example 21]
7,36,"C[C@]1(c2cc(NC(=O)c3ncccc3Cl)ccc2F)N=C(N)OCC12CC2 [Example 48, (S)—N-(3-(6-Amino-8-methyl-5-oxa-7-azaspiro[2.5]oct-6-en-8-yl)-4-fluorophenyl)-3-chloropicolinamide]"
8,35,"CC[C@@]1(c2cc(NC(=O)c3ccccn3)ccc2F)CCOC(N)=N1 [Example 18, Pyridine-2-carboxylic acid [3-((S)-2-amino-4-ethyl-5,6-dihydro-4H-[1,3]oxazin-4-yl)-4-fluoro-phenyl]-amide]"
9,8,"CC[C@@]1(c2cc(NC(=O)c3ccc(Cl)cn3)ccc2F)CCOC(N)=N1 [Example 19, 5-Chloro-pyridine-2-carboxylic acid [3-((S)-2-amino-4-ethyl-5,6-dihydro-4H-[1,3]oxazin-4-yl)-4-fluoro-phenyl]-amide]"
10,7,"C[C@@]1(c2cc(NC(=O)c3ncc(F)cc3F)ccc2F)CCOC(N)=N1 [Example 33, 3,5-Difluoro-pyridine-2-carboxylic acid [3-((S)-2-amino-4-methyl-5,6-dihydro-4H-[1,3]oxazin-4-yl)-4-fluoro-phenyl]-amide]"
11,7,CC[C@@]1(c2cc(NC(=O)c3ncc(Cl)cc3Cl)ccc2F)CCOC(N)=N1 [Example 22]
12,6,"Cn1cc(Cl)c(C(=O)Nc2ccc(F)c([C@@]3(C)N=C(N)OCC34CC4)c2)n1 [Example 56, (S)—N-(3-(6-Amino-8-methyl-5-oxa-7-azaspiro[2.5]oct-6-en-8-yl)-4-fluorophenyl)-4-chloro-1-methyl-1H-pyrazole-3-carboxamide]"
